Reference: ChEMBL document CHEMBL1150976, “The selectivity of protein kinase inhibitors: a further update” (Biochem J, 2007)

Assays:
[1] = molecular target: T1, MAP kinase-activated protein kinase 5 (Homo sapiens) (UniProt Q8IW41); assay: Percentage PRAK activity remaining in the presence of 0.1uM inhibitor
T1 sequence (whole entry): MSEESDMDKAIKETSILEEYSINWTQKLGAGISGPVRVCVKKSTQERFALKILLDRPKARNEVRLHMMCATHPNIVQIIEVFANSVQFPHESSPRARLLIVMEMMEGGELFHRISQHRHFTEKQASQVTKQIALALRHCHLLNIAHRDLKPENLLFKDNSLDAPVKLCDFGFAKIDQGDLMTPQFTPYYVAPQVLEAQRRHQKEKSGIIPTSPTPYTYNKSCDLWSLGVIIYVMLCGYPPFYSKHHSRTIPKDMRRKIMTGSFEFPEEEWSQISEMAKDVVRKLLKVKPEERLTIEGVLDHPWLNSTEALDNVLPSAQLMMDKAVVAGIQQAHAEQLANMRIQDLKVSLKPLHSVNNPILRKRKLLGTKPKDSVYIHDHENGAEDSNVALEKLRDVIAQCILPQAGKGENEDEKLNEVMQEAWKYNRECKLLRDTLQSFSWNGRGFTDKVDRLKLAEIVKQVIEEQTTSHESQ

[2] = molecular target: T2, 3-phosphoinositide-dependent protein kinase 1 (Homo sapiens) (UniProt O15530); assay: Percentage PDK1 activity remaining in the presence of 0.1uM inhibitor
T2 sequence (whole entry): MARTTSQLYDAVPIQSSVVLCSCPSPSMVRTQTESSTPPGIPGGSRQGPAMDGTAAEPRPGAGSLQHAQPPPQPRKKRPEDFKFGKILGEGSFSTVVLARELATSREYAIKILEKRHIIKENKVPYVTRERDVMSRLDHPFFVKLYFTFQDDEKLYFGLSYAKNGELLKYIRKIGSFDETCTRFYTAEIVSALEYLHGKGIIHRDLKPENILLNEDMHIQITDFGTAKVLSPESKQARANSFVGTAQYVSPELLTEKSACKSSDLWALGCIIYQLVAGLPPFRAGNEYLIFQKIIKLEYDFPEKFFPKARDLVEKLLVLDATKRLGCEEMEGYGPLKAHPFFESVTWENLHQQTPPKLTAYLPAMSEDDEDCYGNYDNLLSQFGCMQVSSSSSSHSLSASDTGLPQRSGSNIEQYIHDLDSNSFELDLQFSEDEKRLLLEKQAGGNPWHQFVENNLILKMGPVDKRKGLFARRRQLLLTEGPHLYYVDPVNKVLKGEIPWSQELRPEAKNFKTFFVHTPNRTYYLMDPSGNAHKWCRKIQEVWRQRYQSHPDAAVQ

[3] = molecular target: Serine/threonine-protein kinase N2 (Homo sapiens) (UniProt Q16513); assay: Percentage PRK2 activity remaining in the presence of 0.1uM inhibitor
Sequence of Serine/threonine-protein kinase N2 (Homo sapiens) (Q16513 whole entry, looked up): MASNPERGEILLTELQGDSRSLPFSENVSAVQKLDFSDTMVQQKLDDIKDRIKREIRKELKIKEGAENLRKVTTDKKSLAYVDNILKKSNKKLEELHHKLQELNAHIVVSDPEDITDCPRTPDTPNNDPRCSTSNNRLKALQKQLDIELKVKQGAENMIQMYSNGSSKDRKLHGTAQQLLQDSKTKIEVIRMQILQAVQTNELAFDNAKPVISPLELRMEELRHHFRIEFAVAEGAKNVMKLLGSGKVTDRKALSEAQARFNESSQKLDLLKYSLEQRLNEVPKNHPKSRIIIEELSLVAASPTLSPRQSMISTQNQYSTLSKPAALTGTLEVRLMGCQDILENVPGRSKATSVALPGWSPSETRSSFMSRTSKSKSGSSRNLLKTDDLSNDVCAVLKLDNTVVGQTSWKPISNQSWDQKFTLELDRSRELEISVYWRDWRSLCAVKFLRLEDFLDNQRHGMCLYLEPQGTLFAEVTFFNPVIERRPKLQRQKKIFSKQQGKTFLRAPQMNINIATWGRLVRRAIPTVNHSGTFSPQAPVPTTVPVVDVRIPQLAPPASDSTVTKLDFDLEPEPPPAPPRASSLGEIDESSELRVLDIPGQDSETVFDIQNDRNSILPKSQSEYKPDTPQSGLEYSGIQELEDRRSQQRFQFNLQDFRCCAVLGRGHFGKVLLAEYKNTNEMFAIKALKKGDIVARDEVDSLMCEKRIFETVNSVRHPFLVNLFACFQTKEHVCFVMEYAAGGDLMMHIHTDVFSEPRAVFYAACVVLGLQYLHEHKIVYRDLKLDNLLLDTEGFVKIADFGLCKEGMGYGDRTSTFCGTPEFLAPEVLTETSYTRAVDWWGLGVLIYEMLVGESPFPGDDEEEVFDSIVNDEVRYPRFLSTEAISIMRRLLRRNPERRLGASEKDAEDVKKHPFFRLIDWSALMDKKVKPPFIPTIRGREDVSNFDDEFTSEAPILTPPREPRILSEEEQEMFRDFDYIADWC

[4] = molecular target: T3, Mitogen-activated protein kinase 15 (Homo sapiens) (UniProt Q8TD08); assay: Percentage ERK8 activity remaining in the presence of 0.1uM inhibitor
T3 sequence (whole entry): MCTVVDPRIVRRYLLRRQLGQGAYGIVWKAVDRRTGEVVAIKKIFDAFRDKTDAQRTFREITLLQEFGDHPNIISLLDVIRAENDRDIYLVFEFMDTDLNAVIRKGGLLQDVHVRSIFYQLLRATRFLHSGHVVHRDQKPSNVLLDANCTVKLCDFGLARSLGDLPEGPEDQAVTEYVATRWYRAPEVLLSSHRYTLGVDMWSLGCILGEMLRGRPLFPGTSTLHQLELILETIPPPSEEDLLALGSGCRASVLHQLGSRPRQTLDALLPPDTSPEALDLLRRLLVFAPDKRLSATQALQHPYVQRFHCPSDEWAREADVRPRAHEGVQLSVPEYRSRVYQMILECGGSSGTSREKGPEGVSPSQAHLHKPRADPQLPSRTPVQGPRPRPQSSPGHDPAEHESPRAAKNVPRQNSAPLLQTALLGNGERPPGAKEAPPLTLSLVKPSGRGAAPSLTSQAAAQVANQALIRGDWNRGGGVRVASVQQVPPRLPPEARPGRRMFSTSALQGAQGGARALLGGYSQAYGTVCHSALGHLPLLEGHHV

[5] = molecular target: T4, Inhibitor of nuclear factor kappa-B kinase subunit beta (Homo sapiens) (UniProt O14920); assay: Percentage IKK-beta activity remaining in the presence of 0.1uM inhibitor
T4 sequence (whole entry): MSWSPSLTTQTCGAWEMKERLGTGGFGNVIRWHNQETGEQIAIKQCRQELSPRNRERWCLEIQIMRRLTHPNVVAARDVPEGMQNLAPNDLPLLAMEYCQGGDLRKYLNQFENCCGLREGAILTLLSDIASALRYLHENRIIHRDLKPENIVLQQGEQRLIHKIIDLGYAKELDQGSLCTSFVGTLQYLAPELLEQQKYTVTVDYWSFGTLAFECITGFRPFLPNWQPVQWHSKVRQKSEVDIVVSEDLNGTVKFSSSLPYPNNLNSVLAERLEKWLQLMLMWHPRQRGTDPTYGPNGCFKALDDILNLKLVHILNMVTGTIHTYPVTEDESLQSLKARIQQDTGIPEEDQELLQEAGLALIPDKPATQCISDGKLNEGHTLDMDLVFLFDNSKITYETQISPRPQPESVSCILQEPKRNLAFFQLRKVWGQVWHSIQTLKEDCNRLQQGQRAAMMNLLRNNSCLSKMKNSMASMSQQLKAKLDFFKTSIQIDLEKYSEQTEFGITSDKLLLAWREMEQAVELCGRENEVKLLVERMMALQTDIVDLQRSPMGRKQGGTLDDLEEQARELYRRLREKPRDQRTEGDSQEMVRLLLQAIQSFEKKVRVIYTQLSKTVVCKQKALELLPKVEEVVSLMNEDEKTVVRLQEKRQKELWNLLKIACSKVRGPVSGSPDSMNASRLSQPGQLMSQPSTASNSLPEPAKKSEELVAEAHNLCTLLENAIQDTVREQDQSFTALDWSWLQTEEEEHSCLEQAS

[6] = molecular target: Mitogen-activated protein kinase 1 (Homo sapiens) (UniProt P28482); assay: Percentage ERK2 activity remaining in the presence of 0.1uM inhibitor
Sequence of Mitogen-activated protein kinase 1 (Homo sapiens) (P28482 whole entry): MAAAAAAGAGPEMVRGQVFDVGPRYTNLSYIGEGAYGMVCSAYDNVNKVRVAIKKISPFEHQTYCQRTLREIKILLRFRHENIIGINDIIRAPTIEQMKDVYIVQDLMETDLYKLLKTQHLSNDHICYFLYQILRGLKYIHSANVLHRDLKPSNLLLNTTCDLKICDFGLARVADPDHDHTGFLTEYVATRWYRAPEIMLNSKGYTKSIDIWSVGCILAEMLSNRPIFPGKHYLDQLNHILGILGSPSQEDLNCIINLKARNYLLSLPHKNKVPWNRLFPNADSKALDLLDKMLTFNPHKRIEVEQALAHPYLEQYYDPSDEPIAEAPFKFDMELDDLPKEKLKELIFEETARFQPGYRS

[7] = molecular target: Cyclin-dependent kinase 2/cyclin A (Homo sapiens) (UniProt P24941+P20248+P78396); assay: Percentage CDK2-cyclinA activity remaining in the presence of 0.1uM inhibitor; format: protein-complex assay

CC(C)[C@H](CO)Nc1nc(Nc2cccc(Cl)c2)c2ncn(C(C)C)c2n1 [PURVALANOLA]
Activity [1]: 91% | Activity [2]: 79% | Activity [3]: 81% | Activity [4]: 70% | Activity [5]: 89% | Activity [6]: 79% | Activity ([7]; filed as antagonist): 9%

Cn1c2ccccc2c2c3c(c4c5ccccc5n(CCC#N)c4c21)CNC3=O
Activity [1]: 76% | Activity ([2]; filed as antagonist): 11% | Activity ([3]; filed as antagonist): 5% | Activity ([4]; filed as antagonist): 38% | Activity [5]: 76% | Activity ([6]; filed as antagonist): 41% | Activity ([7]; filed as antagonist): 8%

Cn1cc(C2=C(c3cn(CCCSC(=N)N)c4ccccc34)C(=O)NC2=O)c2ccccc21
Activity [1]: 80% | Activity [2]: 62% | Activity ([3]; filed as antagonist): 8% | Activity [4]: 51% | Activity [5]: 91% | Activity [6]: 92% | Activity ([7]; filed as antagonist): 3%

O=C(NCCCNc1nc(Nc2cccc(NC(=O)N3CCCC3)c2)ncc1I)c1cccs1
Activity [1]: 83% | Activity ([2]; filed as antagonist): 5% | Activity ([3]; filed as antagonist): 43% | Activity ([4]; filed as antagonist): 7% | Activity [5]: 93% | Activity [6]: 71% | Activity ([7]; filed as antagonist): 10%

CN(C)C[C@@H]1CCn2cc(c3ccccc32)C2=C(C(=O)NC2=O)c2cn(c3ccccc23)CCO1
Activity [1]: 82% | Activity ([2]; filed as antagonist): 25% | Activity ([3]; filed as antagonist): 38% | Activity [4]: 92% | Activity [5]: 86% | Activity [6]: 94% | Activity [7]: 68%

CC(C)CCN1c2nc(Nc3cc(F)c(O)c(F)c3)ncc2N(C)C(=O)C1C (stereo not drawn)
Activity [1]: 89% | Activity [2]: 94% | Activity [3]: 97% | Activity [4]: 82% | Activity [5]: 106% | Activity [6]: 85% | Activity [7]: 84%

Cc1n[nH]c2ccc(-c3cncc(OC[C@@H](N)Cc4c[nH]c5ccccc45)c3)cc12
Activity [1]: 107% | Activity [2]: 79% | Activity ([3]; filed as antagonist): 2% | Activity ([4]; filed as antagonist): 28% | Activity [5]: 89% | Activity [6]: 64%
